Laboratory results taken from the supplement of paper PMC5412046.

Columns and labels:
SB.msgc-1 [1] = assay: AC50 for growth inhibition (viability) (log10 M); higher = less potent; details: SB.msgc-1 (sporadic gastric cancer)
Method in brief: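 Gastric cancer cells derived from patients with hereditary or sporadic disease were seeded at 500 cells in 5 μL medium per 1536 well. A pintool delivered 23 nL of compound in DMSO, as 11 threefold dilutions from a final 46 μM. After 48 h, CellTiter-Glo was added for 30 min at room temperature and luminescence was read on a ViewLux. The log half-maximal activity concentration was taken from a four-parameter fit of viability normalised to DMSO, using only high-quality curve classes.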

SB.msgc-1 [2] = assay: viability at highest tested concentration (MAXR) relative to DMSO; higher = less cytotoxic; details: SB.msgc-1 (sporadic gastric cancer)
Method in brief: (§1)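 In 1536-well plates, each well held 500 gastric cancer cells of hereditary or sporadic patient origin in 5 μL medium. Compound in DMSO (23 nL, pintool) was added at 11 concentrations spaced threefold apart, and the top concentration was noted per compound. Luminescence was read on a ViewLux after a 48 h incubation and a 30 min room-temperature treatment with CellTiter-Glo. Figures give viability normalised to DMSO, either at the highest concentration or as trapezoidal area under the curve.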

SB.mhdgc-1 [3] = assay: as above; details: SB.mhdgc-1 (hereditary c.1380delA CDH1 gastric cancer)
Method in brief: as §1

SB.msgc-1 [4] = assay: area under the dose-response curve of % viability (trapezoidal, 11 doses) (% viability x log10 concentration); higher = less cytotoxic; details: SB.msgc-1 (sporadic gastric cancer)
Method in brief: as §1

SB.mhdgc-1 [5] = assay: as above; details: SB.mhdgc-1 (hereditary c.1380delA CDH1 gastric cancer)
Method in brief: as §1

O=C1NC(=O)/C(=C\c2ccc(-c3ccc(F)cc3)o2)S1
AC50 for growth inhibition (log10 M) (SB.msgc-1 [1]): -4.78

NC(=O)c1noc([C@H](CCCC2CCCCC2)CC(=O)NO)n1
AC50 for growth inhibition (log10 M) (SB.msgc-1 [1]): -4.93

Nc1nc(NCCNc2ncc(-n3ccnc3)c(-c3ccc(Cl)cc3Cl)n2)ccc1[N+](=O)[O-]
AC50 for growth inhibition (log10 M) (SB.msgc-1 [1]): -5.68

Nc1nc(Nc2ccc([S+](N)(=O)[O-])cc2)nn1C(=O)c1c(F)cccc1F
AC50 for growth inhibition (log10 M) (SB.msgc-1 [1]): -5.33

Nc1nc(N)c2nc(-c3cccc(O)c3)c(-c3cccc(O)c3)nc2n1
AC50 for growth inhibition (log10 M) (SB.msgc-1 [1]): -5.18

O=C(C1CC1)N1CC[C@@H](Cn2c(-c3ccc(-c4ccc5occc5c4)cc3)nc3cnccc32)C1
AC50 for growth inhibition (log10 M) (SB.msgc-1 [1]): -4.73

O=C1NCCc2[nH]c(-c3ccncc3)cc21
AC50 for growth inhibition (log10 M) (SB.msgc-1 [1]): -5.63

O=C(O)c1ccc(-c2c[nH]c3ncc(-c4ccccc4)cc23)cc1C1CCCC1
AC50 for growth inhibition (log10 M) (SB.msgc-1 [1]): -6.28

O=C(O)c1ccc(O)c2ncc(N3CCOCC3)cc12
AC50 for growth inhibition (log10 M) (SB.msgc-1 [1]): -4.78

O=C(Nc1ccccc1)Nc1ccc(-c2ccc(C(=O)[C@@H]3CCC[C@H]3C(=O)O)cc2)cc1
AC50 for growth inhibition (log10 M) (SB.msgc-1 [1]): -4.63

OC1=C(Cl)C=C(N\C2=C(\C(=O)NC2=O)C3=C(C=CC=C3)[N+]([O-])=O)C=C1
AC50 for growth inhibition (log10 M) (SB.msgc-1 [1]): -4.88

O=[S+]([O-])(/N=C/c1c(O)ccc2ccccc12)c1cccs1
AC50 for growth inhibition (log10 M) (SB.msgc-1 [1]): -5.03

O=C(NOCC(O)CO)c1cc(Br)c(F)c(F)c1Nc1ccc(I)cc1F (centres undefined)
AC50 for growth inhibition (log10 M) (SB.msgc-1 [1]): -5.88

OCCC#Cc1nc(-c2ccc(F)cc2)c(-c2ccncc2)n1CCCc1ccccc1
AC50 for growth inhibition (log10 M) (SB.msgc-1 [1]): -4.68

OCCCNc1cc(-c2ccnc(Nc3cccc(Cl)c3)n2)ccn1
AC50 for growth inhibition (log10 M) (SB.msgc-1 [1]): -6.68

O=[N+]([O-])c1ccc(Nc2ccccc2-c2ccccc2)c2nonc12
AC50 for growth inhibition (log10 M) (SB.msgc-1 [1]): -4.53

CC1CCN(c2cc(N3CCN(C)CC3)ccc2NC(=O)c2cc(C#N)c[nH]2)CC1 [c-FMS inhibitor] (top concentration 46.0829 µM)
viability (SB.msgc-1 [2]): 40.2%
viability (SB.mhdgc-1 [3]): 2.02%
area under the dose-response curve (SB.msgc-1 [4]): 515
area under the dose-response curve (SB.mhdgc-1 [5]): 514

CCCCn1c(=O)n(Cc2ccccc2F)c(=O)c2nc(Cc3ccc(NC(C)=O)cc3)[nH]c21 [cPEPCK inhibitor] (top concentration 46.0829 µM)
viability (SB.msgc-1 [2]): 61%
viability (SB.mhdgc-1 [3]): 54.1%
area under the dose-response curve (SB.msgc-1 [4]): 411
area under the dose-response curve (SB.mhdgc-1 [5]): 421

CC/1=C/C(=O)N(O)/C(=C1)C2CCCCC2 [ciclopirox] (top concentration 46.0829 µM)
viability (SB.msgc-1 [2]): 48.1%
viability (SB.mhdgc-1 [3]): 7.01%
area under the dose-response curve (SB.msgc-1 [4]): 493
area under the dose-response curve (SB.mhdgc-1 [5]): 395

C[C@@H]1C[C@@H]([C@H](O)CC2CC(=O)NC(=O)C2)C(=O)[C@@H](C)C1 [cycloheximide] (top concentration 46.0829 µM)
viability (SB.msgc-1 [2]): 32.6%
viability (SB.mhdgc-1 [3]): 51.1%
area under the dose-response curve (SB.msgc-1 [4]): 347
area under the dose-response curve (SB.mhdgc-1 [5]): 391

CC/C=C\C[C@H]1C(=O)CC[C@@H]1CC(=O)OC [methyl jasmonate] (top concentration 46.0829 µM)
viability (SB.msgc-1 [2]): 102%
viability (SB.mhdgc-1 [3]): 102%
area under the dose-response curve (SB.msgc-1 [4]): 548
area under the dose-response curve (SB.mhdgc-1 [5]): 523

Oc1ccc2c3c1O[C@H]1c4[nH]c5c(c4C[C@@]4(O)[C@@H](C2)N(CC2CC2)CC[C@]314)C[C@@]1(O)[C@H]2Cc3ccc(O)c4c3[C@@]1(CCN2CC1CC1)[C@H]5O4 [nor-Binaltorphimine] (top concentration 46.0829 µM)
viability (SB.msgc-1 [2]): 118%
viability (SB.mhdgc-1 [3]): 130%
area under the dose-response curve (SB.msgc-1 [4]): 548
area under the dose-response curve (SB.mhdgc-1 [5]): 567

c1ccc2c(Oc3nc(Nc4ccc(N5CCOCC5)cc4)c4ncn(C5CCCCC5)c4n3)cccc2c1 [purmorphamine] (top concentration 46.0829 µM)
viability (SB.msgc-1 [2]): 58.9%
viability (SB.mhdgc-1 [3]): 58%
area under the dose-response curve (SB.msgc-1 [4]): 475
area under the dose-response curve (SB.mhdgc-1 [5]): 460
